Laboratory results from patent US20110245334A1, “USE OF RACEMATES OF PINOCEMBRIN IN PREPARING MEDICAMENTS FOR TREATING STROKE” (CSPC Zhonggi Pharmaceutical Technology (Shijiazhuang) Co. …, priority 2008, published 2011).

How the values were obtained:
Type in all cases: in vivo, rat
[1] = tested on: plasma ET-1; test: Plasma ET-1 (radioimmunoassay) in SHRSP; design: ET-1 content: unit not given here; details: plasma, SHRSP rats
Procedure: 5) Blood of 2 mL was dropped rapidly in a cuvette with 30 μL 7.5% EDTA-2Na and 40 μL aprotinin and mixed. After centrifuged for 5 min at 3000 rpm, plasma ET-1 in liquid supernatant was determined by isotope radioimmunoassay.

[2] = tested on: MCAO rats; test: Regional cerebral blood flow (LDF), MCAO
Description: The rats were fixed pronely on the stereotaxic apparatus and subjected to craniotomy. After cleaning for operation visual field, bregma was used as an origin, and a site situated 2 mm behind and 3 mm right to the bregma was selected as a measuring point. The region […] around the site was thinned by a dental drill. In the process, the integrity of dura was maintained and large vessels were avoided. Probe holder was located and fixed.
The rats were supinely fixed on the operating table to carry out MCAO surgery. When a nylon line was inserted in ICA, it was not inserted into intracranial part until LDF value was stable, and blood flow value in 10 min was recorded, and an average value thereof is used as a baseline value of cerebral blood flow. After the MCAO surgery completed, the nylon line was inserted into the intracranial part. When the blood flow value suddenly declined to 20-30% of the baseline value, it was noted that the blood flow in MCA had been blocked. The blood flow value before MCAO in every group was used as a baseline value (100%) of the group. […] LDF value was determined at the same site before the animals was put to death.

[3] = tested on: TNF-α, IL-1β, ICAM-1, VCAM-1, iNOS, AQP-4; test: Expression of TNF-α, IL-1β, ICAM-1, VCAM-1, iNOS and AQP-4 in ischemic cerebral tissue (FIG. 2)
Description: B is a statistic chart that quantifies the expression of TNF-α, IL-1β, ICAM-1, VCAM-1, iNOS and AQP-4 with β-actin as internal standard.
With β-actin as internal standard, the expressions of TNF-α, IL-1β, ICAM-1, VCAM-1, iNOS, AQP-4 were quantified, and the inhibition effects of pinocembrin racemate on the above proteins were seen intuitively.

[4] = tested on: tMCAO rats; test: Infarct volume (TTC), tMCAO time window study; details: 2 hours ischemia and 24 hours reperfusion
Procedure: (§1) 1. In the test, transient middle cerebral artery occlusion (tMCAO) model of rats was adopted. The reperfusion was performed after focal cerebral ischemia for 2 hours so as to inspect therapeutic time window of pinocembrin after focal cerebral ischemia. The rats were administered by pinocembrin racemate (1 mg/kg, 5 mg/kg, intravenous injection) after reperfusion 1 hour, 4 hours and 6 hours (i.e., ischemia 3 hour, 6 hours and 8 hours). (R)-pinocembrin and (S)-pinocembrin (1 mg/kg, 5 mg/kg, intravenous injection) were administered after reperfusion 1 hour and 4 hours (i.e., ischemia 3 hour and 6 hours). The therapeutic time windows of these drugs in focal cerebral ischemia were assessed by studying their effects to neurological symptom scores, infarct sizes and brain water contents during 24 hours after tMCAO.
(§2) 2.4 Experimental Grouping and Administration • Sham operation group (intravenous injection of normal saline after 3 hours of ischemia); • Model group (intravenous injection of 50 mg/kg hydroxypropyl β-cyclodextrin after 3 hours of ischemia); • Nimodipine group (1 mg/kg, administered after 3 hours of ischemia); • Pinocembrin racemate group (1 mg/kg, 5 mg/kg, administered after 3, 6 and 8 hours of ischemia); • (R)-pinocembrin group (1 mg/kg, 5 mg/kg, administered after 3 and 6 hours of ischemia); • (S)-pinocembrin group (1 mg/kg, 5 mg/kg, administered after 3 and 6 hours of ischemia).
(§3) First administration was performed by intravenous injection, and intraperitoneal injection was carried out once 12 hours later with a dose 1.5 times of that for intravenous injection.
After neurobehavioral scoring, the rats were put to death by decollation and their brain tissues were taken out quickly and put into a refrigerator of −20° C. 10 min later, the brain tissues were moved to an environment of room temperature. After the olfactory bulb, cerebellar and lower brain stem were resected, the brain tissue was cut into six continuous coronal slices with an interval of 2 mm. Then the brain slices were quickly put into 5 ml solution containing 2% TTC and incubated at a constant temperature of 37° C. and in a condition of darkness for 30 min. During the time, the brain slices were tipped every 5 min. […] Every group of brain slices were put in order and photographed. The photographs were processed by an image analysis system and the infarct areas in each slice were calculated. The infarct volume of each slice was calculated via multiplying the infarct area by thickness of slice (2 mm), and the infarct volume was the sum of infarct volumes of all slices. The infarct volume percentage was expressed as: sick-side infarct volume/total sick-side brain volume.

[5] = tested on: tMCAO rats; test: Therapeutic time window in focal cerebral ischemia-reperfusion injured rats; details: 1 mg/kg, 5 mg/kg; for effect on neurobehavioral injury, infarct volume and cerebral edema: tMCAO rats
Procedure: as §1, §2, §3

[6] = 24 h after ischemia, 3 mg/kg, 10 mg/kg, 30 mg/kg in early stage of ischemia, FIG. 2

SMILES: O=C1CC(c2ccccc2)Oc2cc(O)cc(O)c21 (racemic) [Pinocembrin racemate, pinocembrin racemate]
- ET-1 content ([1]; 3 mg/kg): 221.4 ± 20.4
- ET-1 content ([1]; 10 mg/kg): 209.2 ± 16.7
- ET-1 content ([1]; 30 mg/kg): 182.4 ± 24.2
- regional cerebral blood flow (rCBF) ([2]; time point 10 min, 3 mg/kg): 99.91 ± 7.27 % of baseline value
- regional cerebral blood flow (rCBF) ([2]; time point 10 min, 10 mg/kg): 99.91 ± 7.27 % of baseline value
- regional cerebral blood flow (rCBF) ([2]; time point 10 min, 30 mg/kg): 99.91 ± 7.27 % of baseline value
- regional cerebral blood flow (rCBF) ([2]; time point 20 min, 3 mg/kg): 32.03 ± 6.09 % of baseline value
- regional cerebral blood flow (rCBF) ([2]; time point 20 min, 10 mg/kg): 31.45 ± 5.6 % of baseline value
- regional cerebral blood flow (rCBF) ([2]; time point 20 min, 30 mg/kg): 37.98 ± 6.87 % of baseline value
- regional cerebral blood flow (rCBF) ([2]; time point 30 min, 3 mg/kg): 40.76±6.58 % of baseline value
- regional cerebral blood flow (rCBF) ([2]; time point 30 min, 10 mg/kg): 50.09±7.09 % of baseline value
- regional cerebral blood flow (rCBF) ([2]; time point 30 min, 30 mg/kg): 53.28±8.03 % of baseline value
- regional cerebral blood flow (rCBF) ([2]; time point 40 min, 3 mg/kg): 41.59 ± 6.35 % of baseline value
- regional cerebral blood flow (rCBF) ([2]; time point 40 min, 10 mg/kg): 47.72 ± 6.67 % of baseline value
- regional cerebral blood flow (rCBF) ([2]; time point 40 min, 30 mg/kg): 54.92 ± 8.58 % of baseline value
- regional cerebral blood flow (rCBF) ([2]; time point 50 min, 3 mg/kg): 42.81 ± 5.25 % of baseline value
- regional cerebral blood flow (rCBF) ([2]; time point 50 min, 10 mg/kg): 49.98 ± 7.1 % of baseline value
- regional cerebral blood flow (rCBF) ([2]; time point 50 min, 30 mg/kg): 55.01 ± 6.25 % of baseline value
- regional cerebral blood flow (rCBF) ([2]; time point 60 min, 3 mg/kg): 40.8 ± 7.09 % of baseline value
- regional cerebral blood flow (rCBF) ([2]; time point 60 min, 10 mg/kg): 48.99 ± 8.14 % of baseline value
- regional cerebral blood flow (rCBF) ([2]; time point 60 min, 30 mg/kg): 57.95 ± 6.09 % of baseline value
- regional cerebral blood flow (rCBF) ([2]; time point 70 min, 3 mg/kg): 41.69 ± 8.67 % of baseline value
- regional cerebral blood flow (rCBF) ([2]; time point 70 min, 10 mg/kg): 47.01 ± 8.09 % of baseline value
- regional cerebral blood flow (rCBF) ([2]; time point 70 min, 30 mg/kg): 53.75 ± 7.09 % of baseline value
- regional cerebral blood flow (rCBF) ([2]; time point 80 min, 3 mg/kg): 40.75 ± 7.1 % of baseline value
- regional cerebral blood flow (rCBF) ([2]; time point 80 min, 10 mg/kg): 46.07 ± 9.08 % of baseline value
- regional cerebral blood flow (rCBF) ([2]; time point 80 min, 30 mg/kg): 54.99 ± 6.67 % of baseline value
- regional cerebral blood flow (rCBF) ([2]; time point 90 min, 3 mg/kg): 40.99 ± 8.14 % of baseline value
- regional cerebral blood flow (rCBF) ([2]; time point 90 min, 10 mg/kg): 51.85 ± 8.03 % of baseline value
- regional cerebral blood flow (rCBF) ([2]; time point 90 min, 30 mg/kg): 55.16 ± 7.1 % of baseline value
- regional cerebral blood flow (rCBF) ([2]; time point 100 min, 3 mg/kg): 41.16 ± 6.25 % of baseline value
- regional cerebral blood flow (rCBF) ([2]; time point 100 min, 10 mg/kg): 47.12 ± 8.58 % of baseline value
- regional cerebral blood flow (rCBF) ([2]; time point 100 min, 30 mg/kg): 56.59 ± 8.14 % of baseline value
- regional cerebral blood flow (rCBF) ([2]; time point 110 min, 3 mg/kg): 46.59 ± 7.09 % of baseline value
- regional cerebral blood flow (rCBF) ([2]; time point 110 min, 10 mg/kg): 46.89 ± 6.25 % of baseline value
- regional cerebral blood flow (rCBF) ([2]; time point 110 min, 30 mg/kg): 57.8 ± 7.27 % of baseline value
- regional cerebral blood flow (rCBF) ([2]; time point 120 min, 3 mg/kg): 45.8 ± 5.67 % of baseline value
- regional cerebral blood flow (rCBF) ([2]; time point 120 min, 10 mg/kg): 51.8 ± 6.09 % of baseline value
- regional cerebral blood flow (rCBF) ([2]; time point 120 min, 30 mg/kg): 64.09 ± 6.09 % of baseline value
- regional cerebral blood flow (rCBF) ([2]; time point 130 min, 3 mg/kg): 46.99 ± 6.1 % of baseline value
- regional cerebral blood flow (rCBF) ([2]; time point 130 min, 10 mg/kg): 56.59 ± 9.08 % of baseline value
- regional cerebral blood flow (rCBF) ([2]; time point 130 min, 30 mg/kg): 61.72 ± 6.58 % of baseline value
- regional cerebral blood flow (rCBF) ([2]; time point 140 min, 3 mg/kg): 48.01 ± 7.14 % of baseline value
- regional cerebral blood flow (rCBF) ([2]; time point 140 min, 10 mg/kg): 57.8 ± 8.03 % of baseline value
- regional cerebral blood flow (rCBF) ([2]; time point 140 min, 30 mg/kg): 64.98 ± 6.35 % of baseline value
- regional cerebral blood flow (rCBF) ([2]; time point 150 min, 3 mg/kg): 44.07 ± 7.09 % of baseline value
- regional cerebral blood flow (rCBF) ([2]; time point 150 min, 10 mg/kg): 56.99 ± 8.58 % of baseline value
- regional cerebral blood flow (rCBF) ([2]; time point 150 min, 30 mg/kg): 63.99 ± 5.25 % of baseline value
- regional cerebral blood flow (rCBF) ([2]; time point 160 min, 3 mg/kg): 47.85 ± 6.81 % of baseline value
- regional cerebral blood flow (rCBF) ([2]; time point 160 min, 10 mg/kg): 58.01 ± 7.89 % of baseline value
- regional cerebral blood flow (rCBF) ([2]; time point 160 min, 30 mg/kg): 57.01 ± 7.09 % of baseline value
- regional cerebral blood flow (rCBF) ([2]; time point 170 min, 3 mg/kg): 49.12 ± 6.08 % of baseline value
- regional cerebral blood flow (rCBF) ([2]; time point 170 min, 10 mg/kg): 54.07 ± 6.81 % of baseline value
- regional cerebral blood flow (rCBF) ([2]; time point 170 min, 30 mg/kg): 65.58 ± 8.67 % of baseline value
- regional cerebral blood flow (rCBF) ([2]; time point 180 min, 3 mg/kg): 49.89 ± 7.58 % of baseline value
- regional cerebral blood flow (rCBF) ([2]; time point 180 min, 10 mg/kg): 55.9 ± 6.08 % of baseline value
- regional cerebral blood flow (rCBF) ([2]; time point 180 min, 30 mg/kg): 62.96 ± 6.81 % of baseline value
- expression of cytokines TNF-α and IL-1β in cerebral ischemia tissue [3, 6]: inhibited the expression of TNF-α, IL-1β in some extents
- expression of iNOS and AQP-4 protein [3, 6]: inhibited the expression of iNOS and AQP-4 protein in some extents
- inhibition of expression of TNF-α, IL-1β, ICAM-1, VCAM-1, iNOS, AQP-4 quantified with β-actin as internal standard ([3]; doses of 10 mg/kg and 30 mg/kg): showed better results
- Infarct percentage (%) ([4]; 1 mg/kg, 3 h): 16.59 ± 7.98 %
- Infarct percentage (%) ([4]; 1 mg/kg, 6 h): 23.01 ± 11.00%
- Infarct percentage (%) ([4]; 1 mg/kg, 8 h): 27.16 ± 13.69%
- Infarct percentage (%) ([4]; 5 mg/kg, 3 h): 13.64 ± 6.32 %
- Infarct percentage (%) ([4]; 5 mg/kg, 6 h): 15.03 ± 4.07 %
- Infarct percentage (%) ([4]; 5 mg/kg, 8 h): 28.32 ± 18.65%
- therapeutic time window ([5]; acute ischemic stroke in rats (tMCAO), iv): about 6 hours
- effect on neurobehavioral injury, infarct volume and cerebral edema ([5]; initially injected after 3 hours of ischemia): significant
- effect on neurobehavioral injury, infarct volume and cerebral edema ([5]; initially injected after 6 hours of ischemia): significant
